A short description of data set [1]: Rat pharmacokinetics, intravenous injection 1 mg/kg. It counts as in vivo, Sprague Dawley rats. To be noted: for AUC0-7 h / AUC0-7 h of mono-methyl metabolite: n=2, plasma, mean; for AUC0-7 h: dosed parent compound; for AUC0-7 h of mono-methyl metabolite: IV 1 mg/kg of the parent (Example 1 or Comparator A), metabolite measured. Here is the method: (§1) The plasma was separated, frozen and later analyzed. […] In the case of Comparator A the plasma was analyzed for Comparator A and its mono-methyl metabolite, Comparator B. The quantitation of each metabolite and its parent compound was done by LC-MS/MS with standard curves using authentic standards of each compound. The analysis allowed the characterization of the time-concentration profile and the calculation of pharmacokinetic (PK) parameters via non-compartmental methods.

Data set [2] is described as follows: Rat pharmacokinetics, oral gavage 5 mg/kg. Format: in vivo, Sprague Dawley rats. To be noted: for Tmax / AUC0-7 h / Cmax: PO 5 mg/kg; for Tmax / Cmax: n=3, dosed parent compound; for Tmax / AUC0-7 h / Cmax / AUC0-7 h of mono-methyl metabolite / Tmax of mono-methyl metabolite: mean; for AUC0-7 h / AUC0-7 h of mono-methyl metabolite: n=3, plasma; for AUC0-7 h: dosed parent compound; for AUC0-7 h of mono-methyl metabolite: PO 5 mg/kg of the parent (Example 1 or Comparator A), metabolite measured; for Tmax of mono-methyl metabolite: PO 5 mg/kg of the parent, n=3, metabolite measured. How it is done:
as §1

A further data set concerns the target T1, CDK4/cyclin D1 (Homo sapiens, UniProt P11802).
T1 construct: His6 (N); made in house; host or cells: Sf21 insect cells (baculovirus)
In words: CDK4/cyclin D1 enzymatic activity assay (Lance TR-FRET). It counts as biochemical. Conditions: 0.3 nM CDK4/cyclin D1, 175 nM pRb152, 3 μM ATP, 60 min. Here is the method: The same assay was used for IC50 determination of small molecule inhibitors. In general, the kinase reactions were carried out in 30 μL volumes in the reaction solution containing the following: 2 uL compound (in 20% DMSO), 18 uL CDK4/cyclin D1 in Assay Buffer (50 mM HEPES, pH 7.5, 5 mM MgCl2, 2 mM MnCl2, 1 mM DTT, 0.05% BSA, 0.02% Tween-20), 10 uL of the mixture of pRb152 and ATP. […] All reactions were run at room temperature in 384-well white flat-bottom OptiPlates (Perkin Elmer, Cat. No. 6007290) for 60 min then were quenched by the addition of 10 μL of 120 mM EDTA. The signals were captured by the addition of 40 μL of the Detection Solution containing the following: Detection Buffer (50 mM HEPES, pH 7.5, 30 mM EDTA, 0.1% Triton x-100, 0.05% BSA), 70 ng/mL anti-phospho-pRb(S780) (Cell Signaling Technology, Cat. No. 9307S), 1 nM Lance Eu-W1024-Rabbit anti-IgG (Perkin Elmer, Cat. No. AD0082), and 20 nM SureLight™ Allophycocyanin-Streptavidin (Perkin Elmer, Cat. No. CR130-100). The resulted solutions were incubated at room temperature for 2 hours before read on the Evision Multilabel Reader (Perkin Elmer, Envision 2102-0010).
In general terms: In TR-FRET formats the signal depends on donor and acceptor labels being close together.

The next data set deals with CDK1/cyclin B (Homo sapiens, UniProt P06493). In words: CDK1/cyclin B enzymatic activity assay (IMAP-FP). Format: biochemical. Conditions: 100 nM Tamra Histone-H1 peptide, 20 μM ATP, 120 min. How it is done: CDK1/Cyclin B Enzymatic Activity Assay A 384-well microtiter IMAP-FP™ (Molecular Devices Trade Mark Technology) endpoint assay was used for CDK1/cyclin B kinase activity measurements. The same assay was used for IC50 determination of small molecule inhibitors. […] No. R8139), 10 μL substrate mixture of Tamra Histone-H1 peptide (Molecular Devices, Cat. No. R7384) and ATP (Amersham Pharmacia, Cat. No. 27-2056-01) in the 1× Reaction Buffer with 1 mM DTT freshly added. […] All reactions were run at room temperature in black 384-well flat-bottom Costar plates (Corning, Cat. […] No. R8139).

Experimental findings from patent US20130203765A1, “DEUTERATED PYRROLOPYRIMIDINE COMPOUNDS AS INHIBITORS OF CDK4/6” (Novartis AG, priority 2010, published 2013) are described below.

pIC50: −log10 of the molar value.

Chain of CDK1/cyclin B (P06493 whole entry, species assumed): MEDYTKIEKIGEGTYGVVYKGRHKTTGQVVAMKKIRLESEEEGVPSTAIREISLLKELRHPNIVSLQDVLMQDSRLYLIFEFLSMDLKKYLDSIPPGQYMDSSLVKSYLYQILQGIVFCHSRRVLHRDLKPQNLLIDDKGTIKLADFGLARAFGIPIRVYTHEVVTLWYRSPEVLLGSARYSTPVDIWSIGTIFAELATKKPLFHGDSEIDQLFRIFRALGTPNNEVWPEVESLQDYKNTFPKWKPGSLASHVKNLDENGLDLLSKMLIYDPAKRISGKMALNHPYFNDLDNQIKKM
Chain of CDK1/cyclin B (P14635 whole entry partner, species assumed): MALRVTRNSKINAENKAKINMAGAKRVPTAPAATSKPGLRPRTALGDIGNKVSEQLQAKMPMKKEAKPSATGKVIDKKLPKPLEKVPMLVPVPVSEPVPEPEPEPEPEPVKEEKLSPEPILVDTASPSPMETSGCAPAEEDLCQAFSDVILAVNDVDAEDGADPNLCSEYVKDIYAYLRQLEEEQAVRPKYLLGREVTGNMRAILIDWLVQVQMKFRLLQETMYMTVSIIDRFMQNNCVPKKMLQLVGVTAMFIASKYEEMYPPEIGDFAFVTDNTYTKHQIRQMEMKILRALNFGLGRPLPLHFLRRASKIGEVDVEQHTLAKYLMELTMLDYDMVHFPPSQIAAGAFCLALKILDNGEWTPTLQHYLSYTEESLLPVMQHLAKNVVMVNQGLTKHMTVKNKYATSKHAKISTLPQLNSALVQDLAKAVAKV
T1 sequence (P11802 whole entry): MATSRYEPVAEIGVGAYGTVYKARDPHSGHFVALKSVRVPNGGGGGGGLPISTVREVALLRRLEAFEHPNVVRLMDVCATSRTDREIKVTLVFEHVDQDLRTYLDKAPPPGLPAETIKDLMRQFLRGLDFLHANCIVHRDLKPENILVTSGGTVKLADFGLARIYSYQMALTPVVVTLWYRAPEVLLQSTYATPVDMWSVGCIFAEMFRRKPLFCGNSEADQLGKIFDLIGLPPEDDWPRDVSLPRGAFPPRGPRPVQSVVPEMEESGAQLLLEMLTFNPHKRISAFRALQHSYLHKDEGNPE
T1 sequence (P24385 whole entry partner): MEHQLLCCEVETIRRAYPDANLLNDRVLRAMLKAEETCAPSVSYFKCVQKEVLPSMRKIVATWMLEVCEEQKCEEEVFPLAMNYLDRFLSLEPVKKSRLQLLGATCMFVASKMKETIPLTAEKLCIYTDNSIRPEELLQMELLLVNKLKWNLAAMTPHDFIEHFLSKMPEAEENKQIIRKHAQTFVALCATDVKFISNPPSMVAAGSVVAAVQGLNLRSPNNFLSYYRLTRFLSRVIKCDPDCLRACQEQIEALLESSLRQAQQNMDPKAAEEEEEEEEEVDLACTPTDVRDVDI

The compound `CN(C)C(=O)c1cc2cnc(Nc3ccc(N4CCNCC4)cn3)nc2n1C1CCCC1` [Comparator A, 7-cyclopentyl-2-(5-piperazin-1-yl-pyridin-2-ylamino)-7H-pyrrolo[2,3-d]pyrimidine-6-carboxylic acid dimethylamide, reference compound] came in with a T½ in data set [1] (IV 1 mg/kg, n=2, mean) of 2.3 h. Further, the AUC0-7 h in data set [1] (IV 1 mg/kg) turned out to be 1.028 µM·h. The clearance – broadly, a measure of how efficiently the substance is removed, as volume per time – in data set [1] (Sprague Dawley, plasma, IV 1 mg/kg, n=2, mean) is 34 mL/min/kg. Further, the Vd in data set [1] (Sprague Dawley, plasma, IV 1 mg/kg, n=2, mean, read-out: Vdss) stood at 5.4 L/kg. In data set [2], the Tmax (as a rule, the time from dosing to the highest level) is 1.5 h and the AUC0-7 h stood at 1.618 µM·h. For the same compound, the bioavailability (in general, dose-corrected exposure relative to a reference, in per cent) in data set [2] (Sprague Dawley, plasma, PO 5 mg/kg vs IV 1 mg/kg, read-out: F (absolute oral bioavailability)) amounted to 31%. Also, the maximum concentration (Cmax) (in general, the highest concentration seen after dosing) in data set [2] (Sprague Dawley, plasma) came to 348 nM.
For the compound `[2H]C([2H])([2H])NC(=O)c1cc2cnc(Nc3ccc(N4CCNCC4)cn3)nc2n1C1CCCC1` [Example 2, 7-cyclopentyl-2-(5-piperzin-1-yl-pyridin-2-ylamino)-7H-pyrrolo[2,3-d]pyrimidine-6-carboxylic acid methylamide-d3], the results for the “AUC0-7 h of mono-methyl metabolite” value in data set [1] and in data set [2] were 0.066 µM·h and 0.128 µM·h, respectively. For the same compound, the pIC50 (in general, −log10 of the IC50, conventionally taken in molar units) was 6.88 on CDK4/cyclin D1 and below 4.82 against CDK1/cyclin B (0.25 nM CDK1/cyclin B). The “Tmax of mono-methyl metabolite” value in data set [2] is 3.3 h.
Take `CNC(=O)c1cc2cnc(Nc3ccc(N4CCNCC4)cn3)nc2n1C1CCCC1` [Comparator B, 7-cyclopentyl-2-(5-piperazin-1-yl-pyridin-2-ylamino)-7H-pyrrolo[2,3-d]pyrimidine-6-carboxylic acid methylamide, reference compound]: the “AUC0-7 h of mono-methyl metabolite” value in data set [1] amounted to 0.156 µM·h. Moreover, in data set [2], the “AUC0-7 h of mono-methyl metabolite” value stood at 0.372 µM·h and the “Tmax of mono-methyl metabolite” value amounted to 4.3 h.
Turning to “7-cyclopentyl-2-(5-piperzin-1-yl-pyridin-2-ylamino)-7H-pyrrolo[2,3-d]pyrimidine-6-carboxylic acid dimethylamide-d5 [Example 1]”, the “VDss higher than VDss of Comparator A” value in data set [1] (1 mg/kg iv) was “approximately 1.6 fold”. In data set [1] (IV 1 mg/kg, n=2, mean), the CL was 37 mL/min/kg, the T½ was found to be 3.2 h and the Vdss (commonly the apparent volume that relates the amount in the body to the concentration in plasma or blood) is given as 8.6 L/kg. Besides, the AUC0-7 h in data set [1] (IV 1 mg/kg) was 0.883 µM·h. The compound also gave a pIC50 at CDK1/cyclin B ([…] CDK1/cyclin B) below 4.82. In data set [2] (5 mg/kg po), the “Absolute oral bioavailability higher than Comparator A” value is reported as 1.8 fold. In data set [2] (PO 5 mg/kg vs IV 1 mg/kg), the “F (absolute oral bioavailability)” value was found to be 55%. In addition, in data set [2], the Cmax was 549 nM, the Tmax stood at 2 h and the AUC0-7 h is 2.432 µM·h.
